The results in this text go back to PubChem BioAssay AID652239 (Broad Institute, 2013).

The test system of assay [1] is V. cholerae BH1578 lux luminescence induction, 6 h. Description: V. cholerae BH1578 lux luminescence induction, luxS cqsA deficient, confirmatory dose response (AID 652239).
Test in assay [2]: as above
The settings on record: V. cholerae BH1578 lux luminescence induction, 6 h.

Values joined by “and” are separate entries in the source; they are usually repeats but may differ in a detail not shown here. Identical values can stand only once. Active and inactive are the calls of the source. No rule for the calls is given here.

On to `COc1ccc2cc3c(NC(=O)c4ccco4)nn(C)c3nc2c1`, for which the AC40 in assay [1] is 3.82 µM.

As to `Cc1ccc2cc3c(NC(=O)c4cc5ccccc5o4)nn(C)c3nc2c1`, in assay [2] (at 100 µM (top of the series)), the activation is 0.014% (inactive). The same measure, in the same setting: with `Cc1ccc2cc3c(NC(=O)Cc4ccco4)nn(C)c3nc2c1` the figure was 0.407% (inactive). As to `O=C(Nc1nnc(-c2ccc3c(c2)OCCO3)o1)C1CCCCC1`, the AC40 in assay [1] is 7.31 µM and 2.33 µM. As for `O=C(Nc1nnc(-c2cccnc2)o1)C1CCC1`, the activation in assay [2] (at 100 µM (top of the series)) was -0.001% (inactive).

In the case of `CCc1nc(=O)c2ccccc2n1-c1cccc(Cl)c1`, the activation in assay [2] (at 80 µM (top of the series)) was 0.079% (inactive). With `Cn1nc(NC(=O)c2ccco2)c2ccccc21`, the AC40 in assay [1] is > 100 µM (inactive). Consider `Cn1nc(NC(=O)c2ccco2)c2cc3ccccc3nc21`, for which the AC40 in assay [1] was 5.43 µM. As to `Cc1nc(=O)c2ccccc2n1-c1cccc(Cl)c1`, in assay [2] (at 80 µM (top of the series)), the activation is 18.8% (inactive). On the same count and under the same terms, with `O=c1[nH]cnc2ccccc12` the figure was 0.09% (inactive); with `Cc1ccc2c(c1)c(=O)ncn2-c1cccc(Cl)c1`, 6.29% (inactive). In the case of `O=c1ncn(-c2ccccc2)c2ccccc12`, in assay [1], the AC40 is > 80 µM (inactive). For `O=c1ncn(-c2cccc(Cl)c2)c2cccc(Cl)c12`, the activation in assay [2] (at 80 µM (top of the series)) is 0.031% (inactive).

`O=c1ncn(-c2cccc(F)c2)c2ccccc12`: the AC40 in assay [1] was 33.8 µM.

Take `Cn1cnc(=O)c2ccccc21`: the activation in assay [2] (at 80 µM (top of the series)) is 0.029% (inactive). In the case of `CCCCCCCCCC(=O)C(O)CC` (stereo not drawn), in assay [1], the AC40 is 5.27 µM.

As to `CC(C)c1ccc2cc3c(NC(=O)c4ccco4)nn(C)c3nc2c1`, the activation in assay [2] (at 100 µM (top of the series)) was 0.153% (inactive). `O=C(CC1CCCCC1)Nc1nnc(-c2cccnc2)o1`: in assay [2] (at 80 µM (top of the series)), the activation was -0.004% (inactive). On to `O=C(Cc1ccc(-c2ccccc2)cc1)N[C@@H]1CCOC1` (racemic), for which the AC40 in assay [1] is 96.9 µM. Take `COc1ccc(-c2nnc(NC(C)=O)o2)cc1`: the activation in assay [2] (at 100 µM (top of the series)) is 0.028% (inactive).

On to `O=C(Nc1nnc(-c2ccc3c(c2)OCCO3)o1)C(F)(F)c1ccccc1`, for which the activation in assay [2] (at 100 µM (top of the series)) is -0.004% (inactive). `O=c1nc(-c2ccccc2)n(-c2cccc(Cl)c2)c2ccccc12`: in assay [2] (at 80 µM (top of the series)), the activation was -0.006% (inactive). Turning to `Cc1cc2cc3c(NC(=O)c4ccco4)nn(C)c3nc2cc1C`, in assay [1], the AC40 is 42.4 µM. `O=C(Cc1ccc(-c2ccccc2)cc1)NC1CCC1`: the AC40 in assay [1] is 1.26 µM.

With `CCn1nnnc1N`, the activation in assay [2] (at 100 µM (top of the series)) was -0.013% (inactive). `CCCCCCCCCC(=O)[C@H](O)CC` (racemic): the AC40 in assay [1] is 14.1 µM. Regarding `O=C(O)c1ccccc1Nc1cccc(Cl)c1`, the activation in assay [2] (at 80 µM (top of the series)) is 0.008% (inactive). On to `CCn1nnnc1/N=C/c1ccc(N2CCCCC2)cc1`, for which, in assay [2] (at 100 µM (top of the series)), the activation was 0.106% (inactive). As for `CCn1nnnc1NCc1ccc(C(C)C)cc1`, the AC40 in assay [1] was 0.563 µM. On the same count and under the same terms, for `Cn1nc(NC(=O)c2ccco2)c2cccnc21` the value was 22.2 µM; for `Cc1ccc2cc3c(NC(=O)c4ccco4)nn(C)c3nc2c1`, 11.6 µM and 16.6 µM. For `Cc1cc2nc3c(cc2cc1F)c(NC(=O)c1ccco1)nn3C`, the AC40 in assay [1] is 37.2 µM.

Turning to `NC(=O)c1ccccc1Nc1ccccc1`, the activation in assay [2] (at 80 µM (top of the series)) was 0.161% (inactive).

As for `O=c1ncn(Cc2ccc(Cl)cc2)c2ccccc12`, the activation in assay [2] (at 80 µM (top of the series)) was 0.451% (inactive). Turning to `Cc1ccc2cc3c(NC(=O)c4ccc(C)o4)nn(C)c3nc2c1`, the activation in assay [2] (at 100 µM (top of the series)) is 1.77% (inactive). On the same count and under the same terms, for `O=C(Nc1nnc(-c2ccc3c(c2)OCCO3)o1)C1CC1` the value was 0.001% (inactive); for `O=C(Nc1nnc(-c2ccccc2Cl)o1)C1CCCCC1`, 0.003% (inactive). As to `Cc1ccc2cc3c(NC(=O)c4cccs4)nn(C)c3nc2c1`, in assay [1], the AC40 is > 80 µM (inactive). As to `COc1ccc(-n2cnc(=O)c3ccccc32)cc1Cl`, in assay [2] (at 80 µM (top of the series)), the activation is 0.3% (inactive). The same measure, in the same setting: with `O=c1ncn(-c2cccc(Cl)c2)c2ccc(Cl)cc12` the figure was 8.89% (inactive); with `COC(=O)c1ccccc1Nc1cccc(Cl)c1`, 0.61% (inactive). `Cc1cc(F)cc2nc3c(cc12)c(NC(=O)c1ccco1)nn3C`: the AC40 in assay [1] was 89.6 µM. For the compound `O=C(Cc1ccc(-c2ccccc2)cc1)NC1COC1`, in assay [1], the AC40 was > 100 µM (inactive). Turning to `O=C(Nc1nnc(-c2ccncc2)o1)C1CCC1`, in assay [2] (at 100 µM (top of the series)), the activation was 0.028% (inactive).

Turning to `O=c1ncn(-c2ccc(Cl)c(Cl)c2)c2ccccc12`, the activation in assay [2] (at 80 µM (top of the series)) was 0.032% (inactive). Turning to `CCOC(=O)c1ccccc1Nc1cccc(Cl)c1`, the activation in assay [2] (at 80 µM (top of the series)) is 0.006% (inactive). The same measure, in the same setting: with `O=C(CSc1nc2ccccc2c(=O)[nH]1)NC1CCCCC1` the figure was 0.004% (inactive).

On to `O=C1C(=O)N(Cc2ccccc2Cl)c2ccccc21`, for which the activation in assay [2] (at 80 µM (top of the series)) is 0.075% (inactive). `Cc1ccc2cc3c(NC(=O)c4ccccn4)nn(C)c3nc2c1`: in assay [2] (at 100 µM (top of the series)), the activation is -0.001% (inactive).

Take `O=C(Nc1nnc(-c2cccc(Cl)c2)o1)C1CCCCC1`: the activation in assay [2] (at 80 µM (top of the series)) is 0.061% (inactive). As for `O=C(Nc1nnc(-c2ccc3c(c2)OCCO3)o1)C1CCC1`, in assay [2] (at 100 µM (top of the series)), the activation is 0.037% (inactive).

As for `CCc1ccc2cc3c(NC(=O)c4ccco4)nn(C)c3nc2c1`, the AC40 in assay [1] is 58.9 µM. In the case of `COc1ccccc1-c1nnc(NC(=O)C2CCCCC2)o1`, the AC40 in assay [1] is > 100 µM (inactive). For the compound `O=c1ncn(-c2cc(Cl)cc(Cl)c2)c2ccccc12`, the AC40 in assay [1] was 4.71 µM. For `O=C(CSc1nc2c(c(=O)[nH]1)CCCC2)NC1CCCCC1`, the activation in assay [2] (at 80 µM (top of the series)) was 0.193% (inactive). Consider `Cn1ccc(NC(=O)c2ccco2)n1`, for which the activation in assay [2] (at 100 µM (top of the series)) was 0.036% (inactive).

`O=C(CC1CCCCC1)Nc1nnc(-c2ccc3c(c2)CCCC3)o1`: the activation in assay [2] (at 35 µM (top of the series)) was 0.052% (inactive).

In the case of `CN1CCC(C(=O)Nc2nnc(-c3ccc4c(c3)OCCO4)o2)CC1`, in assay [2] (at 100 µM (top of the series)), the activation is 0.02% (inactive).

Turning to `O=C(Nc1nnc(C2CCCC2)o1)C1CCCCC1`, the activation in assay [2] (at 100 µM (top of the series)) is -0.003% (inactive). On to `O=c1ncn(-c2cccc(Cl)c2)c2ccccc12`, for which, in assay [1], the AC40 is 14.1 µM and 31 µM. Same read-out and setting: with `Cc1cccc(-n2cnc(=O)c3ccccc32)c1` the figure was 75.9 µM. As to `CN(C)/C=N/c1nnc(-c2ccc3c(c2)OCCO3)o1`, in assay [2] (at 100 µM (top of the series)), the activation is 0.022% (inactive). In the case of `COc1ccc(S(=O)(=O)Nc2nnc(-c3ccc4c(c3)OCCO4)o2)cc1`, in assay [2] (at 100 µM (top of the series)), the activation was 0.003% (inactive).

With `CC(C)(C)COC(=O)CSc1n[nH]c(=O)[nH]c1=O`, in assay [1], the AC40 is 12.5 µM.

Take `Cc1ccc2c(=O)ncn(-c3cccc(Cl)c3)c2c1`: in assay [2] (at 80 µM (top of the series)), the activation was 0.04% (inactive). Consider `O=c1ncn(-c2ccccc2Cl)c2ccccc12`, for which the activation in assay [2] (at 80 µM (top of the series)) was 1.17% (inactive). For `Cc1cc(F)c2cc3c(NC(=O)c4ccco4)nn(C)c3nc2c1`, the AC40 in assay [1] was > 100 µM (inactive). For the compound `CCn1nnnc1NC(C)c1ccc(N2CCCC2)cc1` (stereo not drawn), the activation in assay [2] (at 100 µM (top of the series)) was 11.5% (inactive). With `O=C(Nc1nnc(-c2cccnc2)o1)C1CCCCC1`, in assay [1], the AC40 was > 100 µM (inactive). Consider `CCC(C)(C)C(=O)Nc1nnc(-c2ccc3c(c2)OCCO3)o1`, for which the activation in assay [2] (at 80 µM (top of the series)) was -0.001% (inactive). As to `c1ccc(CNc2nnc(-c3ccc4c(c3)OCCO4)o2)cc1`, the activation in assay [2] (at 100 µM (top of the series)) was 0.001% (inactive). For `COc1ccc(-c2nnc(NC(=O)C3CCCCC3)o2)cc1`, the activation in assay [2] (at 100 µM (top of the series)) is 17.9% (inactive). In the case of `O=C(Nc1nnc(-c2ccc3c(c2)OCCO3)o1)C1CCCCCC1`, the AC40 in assay [1] is > 100 µM (inactive).

Regarding `O=c1ncn(-c2ccc(F)c(Cl)c2)c2ccccc12`, the activation in assay [2] (at 80 µM (top of the series)) was 9.82% (inactive). For the compound `CC(C)(C)OC(=O)N1CCC(C(=O)Nc2nnc(-c3ccc4c(c3)OCCO4)o2)CC1`, in assay [2] (at 100 µM (top of the series)), the activation was 0.011% (inactive). As for `O=c1nc(Cc2ccccc2)n(-c2cccc(Cl)c2)c2ccccc12`, in assay [2] (at 80 µM (top of the series)), the activation was 3.07% (inactive). As to `O=C(Cc1ccc(-c2ccccc2)cc1)NC1CNC1`, the activation in assay [2] (at 100 µM (top of the series)) is 0.01% (inactive).

As for `O=c1ncn(-c2cccc(Cl)c2)c2cc(Cl)ccc12`, the activation in assay [2] (at 80 µM (top of the series)) was 0.074% (inactive). `O=S(=O)(Nc1nnc(-c2ccc3c(c2)OCCO3)o1)c1ccc(Cl)cc1`: the activation in assay [2] (at 100 µM (top of the series)) is -0.004% (inactive). On to `Cc1ccc2cc3c(NC(=O)C4CCCC4)nn(C)c3nc2c1`, for which the activation in assay [2] (at 80 µM (top of the series)) is 11.2% (inactive). Turning to `C(=N\c1nnc(-c2ccc3c(c2)OCCO3)o1)/c1ccccc1`, the activation in assay [2] (at 100 µM (top of the series)) is 0.004% (inactive). `COc1ccc2c(=O)ncn(-c3cccc(Cl)c3)c2c1`: the activation in assay [2] (at 80 µM (top of the series)) was 0.036% (inactive).

As to `O=C(Nc1nnc(-c2ccc3c(c2)OCCO3)o1)C1CCCC1`, in assay [2] (at 80 µM (top of the series)), the activation is 1.99% (inactive). On the same count and under the same terms, with `O=C(Nc1nnc(-c2ccc3c(c2)CCCC3)o1)C1CCC1` the figure was 0% (inactive).

`COc1cccc(-c2nnc(NC(=O)C3CCCCC3)o2)c1`: the activation in assay [2] (at 100 µM (top of the series)) was -0.002% (inactive).

`NC(=O)c1ccccc1Nc1cccc(Cl)c1`: the activation in assay [2] (at 80 µM (top of the series)) is 0.057% (inactive). For the compound `Cn1nc(NC(=O)c2ccco2)c2cc3ccc(C(C)(C)C)cc3nc21`, the activation in assay [2] (at 100 µM (top of the series)) is 0% (inactive). Take `O=C(Nc1nnc(-c2ccc(Cl)cc2)o1)C1CCCCC1`: the activation in assay [2] (at 80 µM (top of the series)) was -0.011% (inactive). Consider `O=c1ncn(-c2ccc(Cl)cc2)c2ccccc12`, for which the activation in assay [2] (at 80 µM (top of the series)) was 0.028% (inactive).

On to `COc1cccc(-n2cnc(=O)c3ccccc32)c1`, for which the activation in assay [2] (at 80 µM (top of the series)) was 2.59% (inactive). For `Cc1ccc2cc3c(NC(=O)c4ccoc4)nn(C)c3nc2c1`, the activation in assay [2] (at 80 µM (top of the series)) is 0.029% (inactive). The same measure, in the same setting: for `Cc1ccc(-n2cnc(=O)c3ccccc32)cc1Cl` the value was 0.07% (inactive). Still for that read-out and setting: for `O=C1C(=O)N(Cc2cccc(Cl)c2)c2ccccc21` the value was 0.06% (inactive).
